From patent US20130195866A1, “METHODS TO INHIBIT NEURODEGENERATION” (priority 2010, published 2013)
Ends that are not written are not given here.

What was measured:
[1] = tested on: wild-type cultured neurons; assay: CaNCA overexpression-induced abnormal morphology in wild-type cultured neurons; assay type: cell-based, mouse; details: for spine density: 15 DIV primary neurons transfected with wtCaN+GFP or CaNCA+GFP (DMSO or VIVIT in medium) or CaNCA+GFP+AKAP79; for GFP-positive neurons with local neuritic dystrophies: of total GFP-positive neurons
Procedure: FIGS. 10A to 10H show wild-type cultured neurons overexpressing a constitutively active CaN construct, CaNCA, develop abnormal morphology that is a phenocopy of the AD effect. […] Wild-type cultured neurons were infected with AAV-CaNwt or AAV-CaNCA with or without AAV-flag-AKAP79 for twenty-four hours, and then the cell extracts were assayed for luciferase activity. The symbol “*” indicates a p-value of less than 0.05; Data are mean±SD (n=3 experiments each). FIGS. 10B to 10G show images and quantification results of neurodegenerative morphologies observed in wild-type cultured neurons overexpressing CaNCA or a vector. Overexpression of CaNCA, but not CaNwt or vector control, into wild-type cultures induces dendritic dystrophies (FIGS. 10B and 10C; arrows in FIG. 10B indicated local swelling of dendrites), simplification of dendritic arborization (FIGS. 10D and 10E), and spine loss (FIGS. 10F and 10G). […] The symbol “*” indicates a p-value of less than 0.05; The symbol “*” in FIG. 10E indicates a p-value of less than 0.05 (CaNwt vs CaNCA). Data are mean±SD from three independent experiments, each in triplicate. […] Neurons were transfected at 10DIV and analyzed at 14DIV. A decreased spines density spines is observed when CaCA is overexpressed (15.2±1.1) compared with wtCaN (25.9±2.1). This effect was blocked by cotransfection with AKAP79 (25.6±1.0) or by the addition of VIVIT (SEQ ID NO: 7) in the medium (22±1.7). The symbol “**” indicates a p-value of less than 0.001 (ANOVA) and less than 0.05 (post-hoc Student's test). n≧15.
(§1) To examine whether CaN activation is sufficient to cause these morphologic changes, even in the absence of overexpressed APP or exogenously applied Aβ, it was sought to investigate whether the expression of a constitutively-active CaN (CaNCA) can favor morphological changes in wild-type cultured neurons. An AAV vector encoding an HA-tagged CaNCA (AAV-CaNCA) or wild-type CaN (AAV-CaNwt) or an AAV vector control was expressed in cortical cultures. […] Neurons with swollen dendrites were barely detectable in CaNwt-overexpressing cultures, but they were prominently detected in CaNCA-overexpressing cultures (FIG. 10B). […] The latter is similar to the number of dystrophic neurites found in cultures expressing β-galactosidase, an AAV-vector control. Dendritic complexity (FIGS. 10D and 10E) and mean spine density (FIGS. 10F and 100) were reduced in neurons overexpressing CaNCA but not in CaNwt- or vector-overexpressing neurons.

C57BL/6J mice = assay: Neuronal morphology in intact brain of C57BL/6J mice after intracranial AAV injection; assay type: in vivo, mouse; details: live multiphoton imaging, compared with control vector
Procedure: Intracortical injections and surgery were performed as described previously (Spires et al., 2005; Kuchibhotla et al., 2008; Meyer-Luehmann et al., 2008). Briefly, mice were anesthetized with ketamine (10 mg/kg) and xylazine (1 mg/kg) and placed in a stereotaxic apparatus. The surgical site was sterilized with betadyne and isopropyl alcohol, and a 2-3 mm incision was made in the scalp along the midline between the ears. Burr holes were drilled in the skull, 0.5 mm posterior from bregma, and 0.5 mm lateral to the midsagittal line. Using a Hamilton syringe, 3 μl of virus (titer, 4.2×10^12 viral genomes/ml) was injected 1.2 mm deep in somatosensory cortex at a rate of 0.25 μl/min. After one injection in each burr hole, the scalp was sutured, and the mouse recovered from anesthesia on a heating pad.
Images of GFP-filled neuronal processes and, in the case of APP/PS1 mice, amyloid pathology, and blood vessels were obtained using a Bio-Rad 1024ES multiphoton microscope (Bio-Rad), mounted on an Olympus Optical BX50WI upright microscope. […] A mode-locked titanium/sapphire laser (MaiTai; Spectra Physics) generated two-photon fluorescence with 800 nm excitation, and detectors containing three photomultiplier tubes (Hamamatsu) collected emitted light in the range of 380-480, 500-540, and 560-650 nm (Bacskai et al., 2003). […]

NFATc4 = NFATc4 nuclear translocation (nucleus/cytoplasm ratio) induced by TgCM in wild-type cultured neurons; assay type: cell-based, mouse; details: wild-type neurons treated with TgCM for 24 h; VIVIT 2 μM
Procedure: Immunocytochemistry was performed as described previously in Wu et al. (2004). Briefly, after being treated under different experimental conditions, cells were fixed with 4% paraformaldehyde in PBS, pH 7.4, for 15 min and were then membrane permeabilized with 0.5% Triton X-100 in PBS for 5 min. After blocking with 3% bovine serum albumin at 37° C. for 1 h, cells were incubated with primary antibodies: anti-microtubule-associated protein 2 (MAP2) antibody (1: 200; Sigma), or anti-NFATc4 antibody (1:200; Santa Cruz Biotechnology), anti-HA antibody (1:200; Invitrogen), or anti-Flag antibody (1:200; Sigma), at 4° C. overnight. […] Nuclear NFATc4 staining was determined by overlap of NFATc4 staining with Hoechst nuclear staining. […]
Soluble plaque-associated bioactive molecules, possibly assemblies of Aβ, may be responsible for the “halo” effect of neuritic change and [Ca^2+]i alterations near plaques (Kuchibhotla et al., 2008; Meyer-Luehmann et al., 2008; Koffie et al., 2009). […] (NFATc4 and MAP2 images used for quantification of nucleus/cytoplasm ratio of NFATc4 are not shown.) To better characterize the specific role of Aβ oligomers in CaN-mediated NFATc4 activation, nondenaturing size exclusion chromatography (SEC) was used to isolate the various Aβ species from TgCM. […]

[2] = tested on: wild-type cultured neurons growing in TgCM; assay: TgCM-induced morphological abnormalities in wild-type cultured neurons; assay type: cell-based, mouse
Tg2576 neurons = assay: APP overexpression-induced morphological abnormalities in Tg cultures at 21 DIV; assay type: cell-based, mouse
wild-type neurons = assay: Baseline maturation of wild-type neurons; assay type: cell-based, mouse; details: VIVIT 2 μM or DMSO
From the text: The findings presented herein indicate that nuclear accumulation of NFATc4 occurs in neurons from Tg cultures and in human AD postmortem brain and that Aβ-containing CM from Tg culture is capable of inducing CaN-mediated NFATc4 nuclear localization in wild-type neurons. […] Thus, inhibition of CaN-NFAT interaction and subsequent NFAT nuclear accumulation by VIVIT (SEQ ID NO: 7) blocks TgCM or APP overexpression-induced morphological abnormalities in culture.

calcineurin = details: Macian 2005; cited from earlier work
NFAT [3] = details: in vitro; Macian 2005; cited from earlier work
NFAT [4] = assay: NFAT luciferase reporter assay in cultured neurons; assay type: cell-based, mouse; details: neurons overexpressing CaNCA, with or without AAV-flag-AKAP79, 24 h
Procedure: Luciferase reporter assay. CaNwt, CaNCA, or NFAT-TA-Luc (Clontech) was subcloned into AAV serotype 2 vector. These plasmids (1 μg) were used […] at 3 DIV. After 24 h, the cells were harvested and luciferase activities were measured with a luminometer using a reagent kit (Luciferase Assay System with Reporter Lysis Buffer; Promega). The background luciferase activity was subtracted from all experiments.
as §1

[5] = wild-type neurons growing in TgCM, VIVIT 2 μM
[6] = Tg cultures at 21 DIV, compared with wild type

| Substance | spine density [1] | GFP-positive neurons with local neuritic dystrophies [1] | spine density (C57BL/6J mice) | nucleus/cytoplasm ratio of NFATc4 (NFATc4) | spine density ([2]; primary neurons treated with TgCM for 24 h, 1 μM FK506, 2 μM VIVIT or AKAP79 transfection (FIG. 8I)) | dendritic complexity (Sholl analysis) [2, 5] | dendritic spine density [2, 5] | number of neurons with dendritic dystrophies [2, 5] | dendritic complexity / dendritic attenuation (Tg2576 neurons; [6]) | mean spine density / spine loss (Tg2576 neurons; [6]) | number of neurons with dendritic dystrophies (Tg2576 neurons; [6]) | overall morphology during maturation (Tg2576 neurons; Tg neurons, treatment from 3 DIV (3D6, AKAP79) or VIVIT vs DMSO) | CaNCA overexpression-induced dendritic spine loss ([1]; wild-type cultured neurons overexpressing CaNCA) | number of neurons with dendritic dystrophies, dendritic processes and spine density (wild-type neurons) | competition for calcineurin binding (calcineurin) | NFAT dephosphorylation (NFAT [3]) | NFAT-luciferase activity (NFAT [4]) |
| --- | --- | --- | --- | --- | --- | --- | --- | --- | --- | --- | --- | --- | --- | --- | --- | --- | --- |
| CaNwt: wild type mouse CaN expressed from an AAV vector | 25.9±2.1 | 6% | comparable with control vector-injected mice |  |  |  |  |  |  |  |  |  |  |  |  |  |  |
| VIVIT: cell-permeable VIVIT peptide that blocks the docking sites for CaN-NFAT interaction (catalog #480401; Calbiochem) (also: 11R cell-penetrating tag, position and linkage not given here) | 22±1.7 |  |  | abolished | restored | increased dendritic complexity | increased | reduced numbers of neurons with dendritic dystrophies | prevented | prevented | prevented | dramatically improved morphology | virtually eliminate | No significant changes | compete with NFAT proteins for calcineurin binding | block NFAT dephosphorylation |  |
| CaNCA: constitutively active truncated 45 kDa form of mouse CaN (amino acid residues 1-399), expressed from an AAV vector | 15.2±1.1 | Approximately 15% | significantly decreased |  |  |  |  |  |  |  |  |  |  |  |  |  | significantly increased |
